Values of other authors in US6534094B2, “Manufacturing process of microcapsules for sustained release of water soluble peptides” (Eriochem S.A., priority 2000, dated 2003).

Settings: superactive agonist of LH-RH; fold of the biological activity of LH-RH

**Q.** For CCNC(=O)[C@@H]1CCCN1C(=O)[C@H](CCCNC(=N)N)NC(=O)[C@H](CC(C)C)NC(=O)[C@@H](CC(C)C)NC(=O)[C@H](Cc1ccc(O)cc1)NC(=O)[C@H](CO)NC(=O)[C@H](Cc1c[nH]c2ccccc12)NC(=O)[C@H](Cc1c[nH]cn1)NC(=O)[C@@H]1CCC(=O)N1 [leuprolide acetate], which “biological activity relative to LH-RH” value is on record?
**A.** approximately 10 times
